In the test the test system is nude mice, LX-1 lung xenograft intrarenal, tumor weight T/C. The test is described as follows: NCI In Vivo Anticancer Drug Screen. Data for tumor model Human Lung LX-1 Xenograft (intrarenal inoculation) in NU/NU Swiss (nude) mice. As to conditions: endpoint: mean tumor weight change, higher = larger tumour. Put shortly:
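Compound-treated mice carrying transplanted tumors were compared with vehicle-treated controls. Tumor size was the measured end point, and the value is the treated-group measurement divided by the control-group measurement (T/C).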
In general terms: A xenograft is tissue or cells of one species grown in another, often human tumour cells in immunodeficient mice.

The mark [1] stands for this setting: dose: 50.0 mg/kg/injection, schedule: Q01DX010 (sc), vehicle: saline.
Where [2] appears, read: dose: 12.5 mg/kg/injection, schedule: Q04DX003 (sc), vehicle: saline.
The mark [3] stands for this setting: dose: 25.0 mg/kg/injection, schedule: Q04DX003 (sc), vehicle: saline.
The mark [4] stands for this setting: dose: 50.0 mg/kg/injection, schedule: Q04DX003 (sc), vehicle: saline.

The structures appear in SMILES notation. Values joined by “and” are separate entries in the source; they are usually repeats but may differ in a detail not shown here. Identical values can stand only once. Records with an inconclusive call do not appear.

With `Cc1cc(NCCCCCCCCNc2cc(C)nc3cc(N(C)C)ccc23)c2ccc(N(C)C)cc2n1`, the T/C was 56 % of control (dose: 18.75 mg/kg/injection, schedule: Q01DX010 (sc), vehicle: saline with Tween-80); 34 % of control and 45 % of control (dose: 37.5 mg/kg/injection, schedule: Q01DX010 (sc), vehicle: saline with Tween-80); 42 % of control and 60 % of control (dose: 75.0 mg/kg/injection, schedule: Q04DX003 (sc), vehicle: distilled water + Tween-80 + alcohol); 61 % of control and 72 % of control (dose: 150.0 mg/kg/injection, schedule: Q04DX003 (sc), vehicle: distilled water + Tween-80 + alcohol); 33 % of control and 39 % of control (dose: 300.0 mg/kg/injection, schedule: Q04DX003 (sc), vehicle: distilled water + Tween-80 + alcohol); 25 % of control (dose: 600.0 mg/kg/injection, schedule: Q04DX003 (sc), vehicle: distilled water + Tween-80 + alcohol).
Take `COC1=CC(=O)N(C(=O)C2CSC(C(CO)NC(=O)c3csc(/C=N/O)n3)=N2)C1` (configuration not stated): the T/C (dose: 225.0 mg/kg/injection, schedule: Q04DX003 (sc), vehicle: Klucel (hydroxypropylcellulose) (HPC)) is 59 % of control; the T/C (dose: 450.0 mg/kg/injection, schedule: Q04DX003 (sc), vehicle: Klucel (hydroxypropylcellulose) (HPC)) is 112 % of control; the T/C (dose: 900.0 mg/kg/injection, schedule: Q04DX003 (sc), vehicle: Klucel (hydroxypropylcellulose) (HPC)) was 87 % of control; the T/C (dose: 1800.0 mg/kg/injection, schedule: Q04DX003 (sc), vehicle: Klucel (hydroxypropylcellulose) (HPC)) is 50 % of control.
As to `CS(=O)(=O)OCCCNCCCOS(C)(=O)=O`, the T/C (dose: 75.0 mg/kg/injection, schedule: Q04DX003 (sc), vehicle: saline) was 71 % of control.
On to `CNc1nc(N(C)C)nc(N(C)C)n1`, for which the T/C was 177 % of control (dose: 12.5 mg/kg/injection, schedule: Q04DX003 (sc), vehicle: water); 55 % of control (dose: 15.0 mg/kg/injection, schedule: Q01DX010 (ip), vehicle: water); 121 % of control (dose: 15.0 mg/kg/injection, schedule: Q01DX010 (sc), vehicle: water); 287 % of control (dose: 30.0 mg/kg/injection, schedule: Q01DX010 (ip), vehicle: water); 56 % of control (dose: 30.0 mg/kg/injection, schedule: Q01DX010 (sc), vehicle: water); 67 % of control (dose: 50.0 mg/kg/injection, schedule: Q04DX003 (ip), vehicle: water). The T/C (dose: 60.0 mg/kg/injection, schedule: Q01DX010 (ip), vehicle: water) was 71 % of control; the T/C (dose: 60.0 mg/kg/injection, schedule: Q01DX010 (sc), vehicle: water) was 69 % of control; the T/C (dose: 100.0 mg/kg/injection, schedule: Q04DX003 (ip), vehicle: water) is 59 % of control; the T/C (dose: 100.0 mg/kg/injection, schedule: Q04DX003 (sc), vehicle: water) was 114 % of control and 218 % of control; the T/C (dose: 120.0 mg/kg/injection, schedule: Q01DX010 (sc), vehicle: water) was 64 % of control; the T/C (dose: 200.0 mg/kg/injection, schedule: Q04DX003 (ip), vehicle: water) was 54 % of control.
`COc1cc([C@@H]2c3cc4c(cc3[C@@H](OC3OC5COC(C)OC5C(O)C3O)[C@H]3COC(=O)[C@H]23)OCO4)cc(OC)c1O` (some centres not stated): the T/C by setting is: (dose: 2.0 mg/kg/injection, schedule: Q01DX010 (sc), vehicle: saline) 153 % of control; (dose: 4.0 mg/kg/injection, schedule: Q01DX010 (sc), vehicle: saline) 80 % of control; (dose: 8.0 mg/kg/injection, schedule: Q01DX010 (sc), vehicle: saline) 85 % of control; (dose: 16.0 mg/kg/injection, schedule: Q01DX010 (sc), vehicle: saline) 31 % of control.
Turning to `Nc1nc(F)nc2c1ncn2C1OC(COP(=O)(O)O)C(O)C1O` (configuration not stated), the T/C under setting [1] was 55 % of control; the T/C (dose: 50.0 mg/kg/injection, schedule: Q01DX010 (sc), vehicle: suspension in saline) is 53 % of control and 70 % of control; the T/C (dose: 100.0 mg/kg/injection, schedule: Q01DX010 (sc), vehicle: saline) is 20 % of control and 30 % of control; the T/C (dose: 100.0 mg/kg/injection, schedule: Q01DX010 (sc), vehicle: suspension in saline) is 56 % of control and 59 % of control; the T/C (dose: 200.0 mg/kg/injection, schedule: Q01DX010 (sc), vehicle: suspension in saline) is 6 % of control and 18 % of control; the T/C (dose: 400.0 mg/kg/injection, schedule: Q01DX010 (sc), vehicle: saline) is -72 % of control. In addition, the T/C (dose: 400.0 mg/kg/injection, schedule: Q01DX010 (sc), vehicle: suspension in saline) was -62 % of control.
For the molecule `CS(=O)(=O)OCCN(CCOS(C)(=O)=O)c1ccc(C=O)cc1`, the T/C is, setting by setting: (dose: 12.5 mg/kg/injection, schedule: Q01DX010 (sc), vehicle: saline) 188 % of control; (dose: 25.0 mg/kg/injection, schedule: Q01DX010 (sc), vehicle: saline) 71 % of control; under setting [1], 33 % of control.
Turning to `NC(=O)c1ncn2c(=O)n(CCCl)nnc12`, the T/C runs as follows: under setting [2], 56 % of control and 64 % of control; (dose: 12.5 mg/kg/injection, schedule: Q04DX003 (sc), vehicle: suspension in saline) 80 % of control; under setting [3], 23 % of control and 40 % of control; (dose: 25.0 mg/kg/injection, schedule: Q04DX003 (sc), vehicle: suspension in saline) 49 % of control; under setting [4], 3 % of control and 19 % of control; (dose: 50.0 mg/kg/injection, schedule: Q04DX003 (sc), vehicle: suspension in saline) 18 % of control. Also, the T/C (dose: 100.0 mg/kg/injection, schedule: Q04DX003 (sc), vehicle: saline) was 7 % of control.
With `C=C(C)[C@H]1Cc2c(ccc3c2O[C@@H]2COc4cc(OC)c(OC)cc4[C@@H]2C3=O)O1`, the T/C is, setting by setting: (dose: 2.0 mg/kg/injection, schedule: Q01DX010 (sc), vehicle: saline with Tween-80) 286 % of control; (dose: 4.0 mg/kg/injection, schedule: Q01DX010 (sc), vehicle: saline with Tween-80) 62 % of control.
For `O=C1c2ccccc2C(=O)c2c(NCCNCCO)ccc(NCCNCCO)c21`, the T/C is 54 % of control (dose: 4.0 mg/kg/injection, schedule: Q01DX010 (sc), vehicle: water) and 65 % of control (dose: 16.0 mg/kg/injection, schedule: Q01DX010 (sc), vehicle: water).
`N#CC(=C1SCS1)[N+](=O)[O-]`: the T/C (dose: 6.0 mg/kg/injection, schedule: Q04DX003 (sc), vehicle: saline) was 79 % of control; the T/C (dose: 12.0 mg/kg/injection, schedule: Q04DX003 (sc), vehicle: saline) was 103 % of control; the T/C (dose: 24.0 mg/kg/injection, schedule: Q04DX003 (sc), vehicle: saline) is 109 % of control; the T/C (dose: 48.0 mg/kg/injection, schedule: Q04DX003 (sc), vehicle: saline) was 94 % of control.
For `COC1C(O)CC(OC2CC(OC3CC(O[C@@H]4C(=O)c5c(cc6cc(OC7CC(OC8CC(O)C(O)C(C)O8)C(O)C(C)O7)c(C)c(O)c6c5O)C[C@H]4[C@H](OC)C(=O)[C@@H](O)[C@@H](C)O)OC(C)C3O)OC(C)C2O)OC1C` (some centres not stated), the T/C reads like this: (dose: 0.18 mg/kg/injection, schedule: Q01DX010 (sc), vehicle: saline) 62 % of control; (dose: 0.37 mg/kg/injection, schedule: Q01DX010 (sc), vehicle: saline) 32 % of control.
For `OCC1OC(n2cnc3cncnc32)C(O)C1O` (configuration not stated), the T/C runs as follows: under setting [2], 89 % of control; under setting [3], 118 % of control; under setting [4], 69 % of control.
Take `Nc1ncnc2c1ccn2C1OC(CO)C(O)C1O` (configuration not stated): the T/C by setting is: (dose: 1.0 mg/kg/injection, schedule: Q01DX010 (sc), vehicle: Klucel (hydroxypropylcellulose) (HPC)) 85 % of control; (dose: 2.0 mg/kg/injection, schedule: Q01DX010 (sc), vehicle: Klucel (hydroxypropylcellulose) (HPC)) 101 % of control; (dose: 4.0 mg/kg/injection, schedule: Q01DX010 (sc), vehicle: Klucel (hydroxypropylcellulose) (HPC)) 53 % of control.
Take `C[C@]12C=CC(=O)C=C1CC[C@@H]1[C@@H]2C(=O)C[C@@]2(C)[C@H]1CC[C@]2(O)C(=O)CO`: the T/C is, setting by setting: (dose: 300.0 mg/kg/injection, schedule: Q04DX003 (sc), vehicle: Klucel (hydroxypropylcellulose) (HPC)) 50 % of control; (dose: 600.0 mg/kg/injection, schedule: Q04DX003 (sc), vehicle: Klucel (hydroxypropylcellulose) (HPC)) 56 % of control; (dose: 1200.0 mg/kg/injection, schedule: Q04DX003 (sc), vehicle: Klucel (hydroxypropylcellulose) (HPC)) 47 % of control; (dose: 2400.0 mg/kg/injection, schedule: Q04DX003 (sc), vehicle: Klucel (hydroxypropylcellulose) (HPC)) 35 % of control.
For `O=C1OC(=O)[C@H]2[C@@H]1[C@H]1C=C[C@@H]2OC1=O`, the T/C by setting is: (dose: 300.0 mg/kg/injection, schedule: Q04DX003 (sc), vehicle: suspension in saline) 90 % of control; (dose: 600.0 mg/kg/injection, schedule: Q04DX003 (sc), vehicle: suspension in saline) 104 % of control; (dose: 1200.0 mg/kg/injection, schedule: Q04DX003 (sc), vehicle: suspension in saline) 72 % of control.
